For one compound, Km results are on record in article PMC4551668 (Microbial Cell Factories, 2015).

The target of experiment [1] is MPH (Ochr-MPH) (Ochrobactrum sp. M231, UniProt B2Z3X1). The conditions noted are these: CHBD-MPH, tag excised by Kex2; substrate not named, taken from enzyme name and text; assay conditions only by reference. An excerpt: (§1) steady-state kinetics, purified enzyme, standard MPH assay on MPH (Ochr-MPH)
Experiment [2] deals with MPH (Ochr-MPH) (Ochrobactrum sp. M231, UniProt B2Z3X1, K277D/K284Q/K285R). The conditions noted are these: CHBD-DQR; same.
Excerpt: as §1

Experiment [3] concerns the target MPH (Ochr-MPH) (Ochrobactrum sp. M231, UniProt B2Z3X1, K284Q/K285R). The conditions noted are these: CHBD-QR; same.
Excerpt: as §1

Broadly, the Km is the substrate concentration at which the rate is half of its maximum.

Sequence of MPH (Ochr-MPH) (Ochrobactrum sp. M231, UniProt B2Z3X1, K277D/K284Q/K285R) (B2Z3X1 entry or part of it K277D/K284Q/K285R): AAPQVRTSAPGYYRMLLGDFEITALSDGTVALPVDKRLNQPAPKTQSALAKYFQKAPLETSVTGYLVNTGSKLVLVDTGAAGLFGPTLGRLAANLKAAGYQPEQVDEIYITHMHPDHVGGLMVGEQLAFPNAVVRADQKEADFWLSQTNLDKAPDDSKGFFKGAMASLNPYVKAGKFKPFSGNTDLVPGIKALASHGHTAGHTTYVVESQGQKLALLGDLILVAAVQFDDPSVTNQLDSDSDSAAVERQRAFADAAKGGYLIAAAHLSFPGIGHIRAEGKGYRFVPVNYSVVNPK
Sequence of MPH (Ochr-MPH) (Ochrobactrum sp. M231, UniProt B2Z3X1) (B2Z3X1 entry or part of it): as the sequence (B2Z3X1 entry or part of it K277D/K284Q/K285R) above, with D242K, Q249K, R250K counted along it
Sequence of MPH (Ochr-MPH) (Ochrobactrum sp. M231, UniProt B2Z3X1, K284Q/K285R) (B2Z3X1 entry or part of it K284Q/K285R): as the sequence (B2Z3X1 entry or part of it K277D/K284Q/K285R) above, with D242K counted along it

Turning to `COP(=S)(OC)Oc1ccc([N+](=O)[O-])cc1` [methyl parathion], the Km in experiment [1] was determined as 86.9 ± 5.85 µM; in experiment [2], 168 ± 7.57 µM; in experiment [3], 119 ± 8.26 µM.
